Reference: patent publication US20230322767A1, “ARYL SUBSTITUTED PYRROLO-PYRIDINONES AND THERAPEUTIC USES THEREOF” (Bayer Aktiengesellschaft, priority 2020, published 2023)

Legend:
Assay type in all cases: biochemical
CSNK1D = CSNK1D (Homo sapiens (Human), UniProt P48730); assay: CSNK1D Assay (ADP-Glo, 1 μM ATP); settings: median, read-out: CSNK1D IC50 [mol/l] (median)
Method in brief: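 Enzyme preincubated with compound 15 min at 22° C in 50 mM HEPES pH 7.5 buffer with 10 mM MgCl2, 1 mM DTT; kinase reaction run at 1 μM ATP with biotinylated peptide substrate. ADP formed was detected by ADP-Glo luminescence as the measure of activity.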

[1] = target: wild-type Epidermal Growth Factor Receptor (EGFR) (Homo sapiens (Human), UniProt P00533); assay: WT-EGFR Kinase Assay (TR-FRET, 2 mM ATP); settings: EGFR Wildtyp 2 mM ATP IC50 [mol/l] (median), median or individual measurements
Chain of wild-type Epidermal Growth Factor Receptor (EGFR) (P00533 669-1210): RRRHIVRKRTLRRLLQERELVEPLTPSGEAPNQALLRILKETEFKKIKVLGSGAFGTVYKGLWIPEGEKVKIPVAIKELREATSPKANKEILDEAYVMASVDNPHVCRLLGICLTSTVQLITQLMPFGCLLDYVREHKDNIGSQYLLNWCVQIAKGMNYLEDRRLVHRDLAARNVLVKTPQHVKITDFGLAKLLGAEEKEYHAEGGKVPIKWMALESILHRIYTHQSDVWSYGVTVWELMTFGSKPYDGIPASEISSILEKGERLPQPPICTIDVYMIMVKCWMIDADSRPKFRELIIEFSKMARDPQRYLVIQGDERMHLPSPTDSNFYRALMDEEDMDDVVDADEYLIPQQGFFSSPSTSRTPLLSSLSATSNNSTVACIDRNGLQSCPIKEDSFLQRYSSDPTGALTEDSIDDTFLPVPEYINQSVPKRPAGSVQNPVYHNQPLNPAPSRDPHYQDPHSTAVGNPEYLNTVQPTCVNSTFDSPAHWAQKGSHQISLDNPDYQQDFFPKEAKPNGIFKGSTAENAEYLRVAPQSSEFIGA
Method in brief: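 GST-tagged human EGFR (R669–A1210, Sf9-expressed) preincubated 15 min at 22° C with compound in pH 7.0 Hepes/MgCl2 buffer, then reacted at 2 mM ATP with a biotinylated peptide substrate. Phosphorylation detected by TR-FRET (streptavidin-XL665, Tb-cryptate anti-phosphotyrosine) as the 665/620 nm emission ratio.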

CSNK1A1 = CSNK1A1 (Homo sapiens (Human), UniProt P48729); assay: CSNK1A1 Assay 2 (ADP-Glo, 1 μM ATP); settings: median, read-out: CSNK1A1 Assay 2 IC50 [mol/l] (median)
Chain of CSNK1A1 (P48729 whole entry): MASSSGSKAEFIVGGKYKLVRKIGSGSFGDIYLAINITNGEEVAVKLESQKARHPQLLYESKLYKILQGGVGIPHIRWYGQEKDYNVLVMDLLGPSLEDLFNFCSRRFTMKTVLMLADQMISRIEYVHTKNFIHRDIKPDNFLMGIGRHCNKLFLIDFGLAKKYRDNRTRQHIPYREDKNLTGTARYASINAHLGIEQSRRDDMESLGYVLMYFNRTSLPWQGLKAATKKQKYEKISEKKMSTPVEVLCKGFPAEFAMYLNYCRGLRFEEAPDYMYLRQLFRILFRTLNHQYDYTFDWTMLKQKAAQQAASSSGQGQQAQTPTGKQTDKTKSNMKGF
Method in brief: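 Enzyme (~0.0375 ng/μL) preincubated 15 min at 22° C with compound in HEPES pH 7.5 buffer, then reacted with 1 μM ATP and biotin-Ahx-KRRRAL-pS-VASLPGL peptide. ADP product measured by ADP-Glo luminescence after 1 h ATP depletion and 1 h detection at 22° C.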

Chain of CSNK1D (P48730 whole entry): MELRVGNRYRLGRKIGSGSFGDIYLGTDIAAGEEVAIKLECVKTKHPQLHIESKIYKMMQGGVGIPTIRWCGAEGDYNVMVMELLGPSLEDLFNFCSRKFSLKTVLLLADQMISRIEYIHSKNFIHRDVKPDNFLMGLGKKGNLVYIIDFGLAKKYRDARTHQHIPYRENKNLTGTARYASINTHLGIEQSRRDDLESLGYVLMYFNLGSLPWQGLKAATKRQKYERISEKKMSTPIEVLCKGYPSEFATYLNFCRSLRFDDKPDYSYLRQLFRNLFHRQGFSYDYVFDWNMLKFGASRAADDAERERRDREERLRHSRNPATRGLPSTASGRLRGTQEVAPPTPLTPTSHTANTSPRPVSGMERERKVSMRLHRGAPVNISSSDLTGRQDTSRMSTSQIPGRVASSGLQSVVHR

| Structure (SMILES) | IC50 (CSNK1D) | IC50 [1] | IC50 (CSNK1A1) |
| --- | --- | --- | --- |
| Cn1cc(CC2CC2)c2[nH]c(-c3ccnc(NC(=O)C(CC(F)F)c4ccc(F)cc4)c3)c(-c3ccc(F)cc3)c2c1=O (racemic) [Example 65, N-{4-[7-(cyclopropylmethyl)-3-(4-fluorophenyl)-5-methyl-4-oxo-4,5-dihydro-1H-pyrrolo[3,2-c]pyridin-2-yl]pyridin-2-yl}-4,4-difluoro-2-(4-fluorophenyl)butanamide] | 6.6 nM | > 20000 nM | 11 nM |
| CN1CCc2[nH]c(-c3ccnc(NC(=O)C(CC(F)F)c4ccc(F)cc4)c3)c(-c3ccc(F)cc3F)c2C1=O (racemic) [Example 66, N-{4-[3-(2,4-difluorophenyl)-5-methyl-4-oxo-4,5,6,7-tetrahydro-1H-pyrrolo[3,2-c]pyridin-2-yl]pyridin-2-yl}-4,4-difluoro-2-(4-fluorophenyl)butanamide] | 3.2 nM | > 20000 nM | 4.4 nM |
| CC(C(=O)Nc1cc(-c2[nH]c3c(c2-c2ccc(F)cc2F)C(=O)N(C)CC3)ccn1)c1ccc(F)cc1 (racemic) [Example 69, N-{4-[3-(2,4-difluorophenyl)-5-methyl-4-oxo-4,5,6,7-tetrahydro-1H-pyrrolo[3,2-c]pyridin-2-yl]pyridin-2-yl}-2-(4-fluorophenyl)propanamide] | 2.8 nM | > 20000 nM | 3.1 nM |
| CC(C(=O)Nc1cc(-c2[nH]c3c(c2-c2ccccc2)C(=O)NCC3)ccn1)c1ccc(F)cc1 (racemic) [Example 74, 2-(4-fluorophenyl)-N-[4-(4-oxo-3-phenyl-4,5,6,7-tetrahydro-1H-pyrrolo[3,2-c]pyridin-2-yl)pyridin-2-yl]propanamide] | 3 nM | > 20000 nM | 1.6 nM |
| O=C1NCCc2[nH]c(-c3ccnc(NC(=O)C(CC(F)F)c4ccc(F)cc4)c3)c(-c3ccccc3)c21 (racemic) [Example 75, 4,4-difluoro-2-(4-fluorophenyl)-N-[4-(4-oxo-3-phenyl-4,5,6,7-tetrahydro-1H-pyrrolo[3,2-c]pyridin-2-yl)pyridin-2-yl]butanamide] | 4.5 nM | > 20000 nM | 2.7 nM |
| CN1C(=O)c2c([nH]c(-c3ccnc(NC(=O)C(CC(F)F)c4ccc(F)cc4)c3)c2-c2ccccc2)CC12CC2 (racemic) [Example 80, 4,4-difluoro-2-(4-fluorophenyl)-N-[4-(5′-methyl-4′-oxo-3′-phenyl-1′,4′,5′,7′-tetrahydrospiro-[cyclopropane-1,6′-pyrrolo[3,2-c]pyridin]-2′-yl)pyridin-2-yl]butanamide] | 5.1 nM | > 20000 nM | 4.7 nM |
| CN1C(=O)c2c([nH]c(-c3ccnc(NC(=O)C(CC(F)F)c4ccc(F)cc4)c3)c2-c2ccc(F)cc2)CC12CC2 (racemic) [Example 81, 4,4-difluoro-2-(4-fluorophenyl)-N-{4-[3′-(4-fluorophenyl)-5′-methyl-4′-oxo-1′,4′,5′,7′-tetrahydro-spiro[cyclopropane-1,6′-pyrrolo[3,2-c]pyridin]-2′-yl]pyridin-2-yl}butanamide] | 4.3 nM | > 20000 nM | 4.6 nM |
| Cc1cccc(-c2c(-c3ccnc(NC(=O)C(C)c4ccc(F)cc4)c3)[nH]c3c2C(=O)NC(C)(C)C3)c1 (racemic) [Example 88, N-{4-[6,6-dimethyl-3-(3-methylphenyl)-4-oxo-4,5,6,7-tetrahydro-1H-pyrrolo[3,2-c]pyridin-2-yl]pyridin-2-yl}-2-(4-fluorophenyl)propanamide] | 11 nM | > 20000 nM | 8.6 nM |
| CC(C(=O)Nc1cc(-c2[nH]c3c(c2-c2ccc(Cl)cc2)C(=O)NC(C)(C)C3)ccn1)c1ccc(F)cc1 (racemic) [Example 89, N-{4-[3-(4-chlorophenyl)-6,6-dimethyl-4-oxo-4,5,6,7-tetrahydro-1H-pyrrolo[3,2-c]pyridin-2-yl]pyridin-2-yl}-2-(4-fluorophenyl)propanamide] | 4.3 nM | > 20000 nM | 6.8 nM |
| Cc1ccc(-c2c(-c3ccnc(NC(=O)C(C)c4ccc(F)cc4)c3)[nH]c3c2C(=O)NC(C)(C)C3)cc1 (racemic) [Example 91, N-{4-[6,6-dimethyl-3-(4-methylphenyl)-4-oxo-4,5,6,7-tetrahydro-1H-pyrrolo[3,2-c]pyridin-2-yl]pyridin-2-yl}-2-(4-fluorophenyl)propanamide] | 7.6 nM | > 20000 nM | 7.7 nM |
| CC(C(=O)Nc1cc(-c2[nH]c3c(c2-c2ccc(F)cc2)C(=O)NC(C)(C)C3)ccn1)c1ccc(F)cc1 (racemic) [Example 94, 2-(4-fluorophenyl)-N-{4-[3-(4-fluorophenyl)-6,6-dimethyl-4-oxo-4,5,6,7-tetrahydro-1H-pyrrolo[3,2-c]pyridin-2-yl]pyridin-2-yl}propanamide] | 3.2 nM | > 20000 nM | 3 nM |
| CC(C(=O)Nc1cc(-c2[nH]c3c(c2-c2cccnc2)C(=O)NC(C)(C)C3)ccn1)c1ccc(F)cc1 (racemic) [Example 97, N-{4-[6,6-dimethyl-4-oxo-3-(pyridin-3-yl)-4,5,6,7-tetrahydro-1H-pyrrolo[3,2-c]pyridin-2-yl]pyridin-2-yl}-2-(4-fluorophenyl)propanamide] | 14 nM | > 20000 nM | 8.1 nM |
| CC(C(=O)Nc1cc(-c2[nH]c3ccn(C)c(=O)c3c2-c2ccc(F)cc2)ccn1)c1ccc(F)cc1 (racemic) [Example 100, 2-(4-fluorophenyl)-N-{4-[3-(4-fluorophenyl)-5-methyl-4-oxo-4,5-dihydro-1H-pyrrolo[3,2-c]pyridin-2-yl]pyridin-2-yl}propanamide] | 8.6 nM | > 20000 nM | 5.9 nM |
| CC1CN(C)C(=O)c2c1[nH]c(-c1ccnc(NC(=O)C(CC(F)F)c3ccc(F)cc3)c1)c2-c1ccc(F)cc1 (stereo not drawn) [Example 33, 4,4-difluoro-2-(4-fluorophenyl)-N-{4-[3-(4-fluorophenyl)-5,7-dimethyl-4-oxo-4,5,6,7-tetrahydro-1H-pyrrolo[3,2-c]pyridin-2-yl]pyridin-2-yl}butanamide] | 4.3 nM |  | 4.3 nM |
| CC1CN(C)C(=O)c2c1[nH]c(-c1ccnc(NC(=O)C(C)c3ccc(F)cc3)c1)c2-c1ccccc1 (stereo not drawn) [Example 37, N-{4-[5,7-dimethyl-4-oxo-3-phenyl-4,5,6,7-tetrahydro-1H-pyrrolo[3,2-c]pyridin-2-yl]pyridin-2-yl}-2-(4-fluorophenyl)propanamide] | 4.1 nM |  | 3.1 nM |
| CC1CN(C)C(=O)c2c1[nH]c(-c1ccnc(NC(=O)C(CC(F)F)c3ccc(F)cc3)c1)c2-c1ccccc1 (stereo not drawn) [Example 39, N-{4-[5,7-dimethyl-4-oxo-3-phenyl-4,5,6,7-tetrahydro-1H-pyrrolo[3,2-c]pyridin-2-yl]pyridin-2-yl}-4,4-difluoro-2-(4-fluorophenyl)butanamide] | 3.7 nM |  | 3 nM |
| CC1c2[nH]c(-c3ccnc(NC(=O)C(CC(F)F)c4ccc(F)cc4)c3)c(-c3ccccc3)c2C(=O)N(C)C1C (stereo not drawn) [Example 41, 4,4-difluoro-2-(4-fluorophenyl)-N-{4-[5,6,7-trimethyl-4-oxo-3-phenyl-4,5,6,7-tetrahydro-1H-pyrrolo[3,2-c]pyridin-2-yl]pyridin-2-yl}butanamide] | 6.1 nM |  | 5.7 nM |
| CC1(C)CNC(=O)c2c1[nH]c(-c1ccnc(NC(=O)Cc3ccc(F)cc3)c1)c2-c1ccccc1 [Example 42, N-[4-(7,7-dimethyl-4-oxo-3-phenyl-4,5,6,7-tetrahydro-1H-pyrrolo[3,2-c]pyridin-2-yl)pyridin-2-yl]-2-(4-fluorophenyl)acetamide] | 2.1 nM |  | 1.2 nM |
| Cn1cc(CC2CC2)c2[nH]c(-c3ccnc(NC(=O)Cc4ccc(F)cc4)c3)c(-c3ccccc3)c2c1=O [Example 56, N-{4-[7-(cyclopropylmethyl)-5-methyl-4-oxo-3-phenyl-4,5-dihydro-1H-pyrrolo[3,2-c]pyridin-2-yl]pyridin-2-yl}-2-(4-fluorophenyl)acetamide] | 4.8 nM |  | 4.4 nM |
| CC(C(=O)Nc1cc(-c2[nH]c3c(c2-c2ccccc2)C(=O)N(C)CC3CC2CC2)ccn1)c1ccc(F)cc1 (stereo not drawn) [Example 57, N-{4-[7-(cyclopropylmethyl)-5-methyl-4-oxo-3-phenyl-4,5,6,7-tetrahydro-1H-pyrrolo[3,2-c]pyridin-2-yl]pyridin-2-yl}-2-(4-fluorophenyl)propanamide] | 2.9 nM |  | 4.5 nM |
| CN1CC(CC2CC2)c2[nH]c(-c3ccnc(NC(=O)C(CC(F)F)c4ccc(F)cc4)c3)c(-c3ccccc3)c2C1=O (stereo not drawn) [Example 59, N-{4-[7-(cyclopropylmethyl)-5-methyl-4-oxo-3-phenyl-4,5,6,7-tetrahydro-1H-pyrrolo[3,2-c]pyridin-2-yl]pyridin-2-yl}-4,4-difluoro-2-(4-fluorophenyl)butanamide] | 3.6 nM |  | 4.9 nM |
| CC(C(=O)Nc1cc(-c2[nH]c3c(c2-c2ccc(F)cc2)C(=O)N(C)CC3CC2CC2)ccn1)c1ccc(F)cc1 (stereo not drawn) [Example 62, N-{4-[7-(cyclopropylmethyl)-3-(4-fluorophenyl)-5-methyl-4-oxo-4,5,6,7-tetrahydro-1H-pyrrolo[3,2-c]pyridin-2-yl]pyridin-2-yl}-2-(4-fluorophenyl)propanamide] | 4 nM |  | 7.6 nM |
